Earlier results on one substance are cited in article PMC9112550, “Optimization of the antimicrobial peptide Bac7 by deep mutational scanning” (BMC Biology, 2022).

This data set has as its system Salmonella typhimurium. The note with it: 30 mg kg^−1, mice infected with Salmonella typhimurium intraperitoneally. The source says:
Lastly, it is hard to judge if the activity increase of Bac7PS compared to Bac7_1-23 measured in vitro can be translated to in vivo experiments. […] In our study, all untreated mice already ...

On to “Bac7_1-35: Bac7_1-35 (35 amino acid long) (RRIRPRPPRLPRPRPRPLPFPRPGPRPIPRPLPFP; Bactenecin-7; UniProt P19661 131-165, looked up, fragment)”, for which the efficacy was 36%. Moreover, the mean survival (untreated control 10 days) is listed as 24.5 days.
